# Measured values as given in patent US7169604B1, “Method for PR-39 peptide mediated selective inhibition of IκBα degradation” (Beth Israel Deaconess Medical Center, priority 1998, dated 2007).
# Peptide text beside a SMILES is read from it. * marks the point of attachment. Cbz = O=C(OCc1ccccc1)*
# Columns and labels:
# Type in all cases: cell-based, human
# [1] = tested on: U937 cells; assay: Proteasome-dependent degradation of total cellular proteins (35S Met pulse-chase); settings: Homo sapiens, U-937, 1 hr chase, chloroquin 45 μM, after 16 hr metabolic labeling, read-out: inhibition of total cell protein degradation
# Protocol: Therefore the extent of degradation of long-lived cell proteins before or following exposure was compared to either PR-39 or MG132. The result is given by FIG. 3A.
# Exponentially proliferating U937 cells were grown in 10% FBS-RPMI 1640 methionine-free medium supplemented with 200 μCi ^35S Met for 16 hr. Cells were then washed with complete RPMI 1640 medium 3 times and cultured in 10% FBS-RPMI (chase) in the presence of 10 μM of either PR-39 or MG132 or an equal volume of PBS. Chloroquin (45 μM) was added to all cultures to prevent the lysosomal protein degradation. 1 hr later the cells were lysed, and TCA soluble ^35S counts were measured in a liquid scintillation counter (LKB). All experiments were carried out in triplicate and repeated three times. The data are shown as mean±standard deviation.
# [2] = tested on: IκBα; assay: Reversibility of inhibition of IκBα degradation after washout in U937 cells; settings: 10 μM for 45 min, washed, 45 min later TNF-α 1 ng/ml, 10 min
# Protocol: In parallel cells were exposed to MG132, a rapidly reversible competitive inhibitor of the proteasome or with lactacystin which covalently and irreversibly modifies the active site threonine residues. The results are shown by FIG. 1F.
# U937 cells were pretreated with 100 nM of PR-39, 10 μM of either MG132 or lactacystin (LC) or buffer (Control) for 45 min. These cells were then extensively washed with fresh medium. 45 min later TNF-α (1 ng/ml) was added to medium, and the extent of IκBα degradation was determined 10 min later by Western blotting.
# [3] = tested on: NFκB; assay: NFκB-dependent luciferase reporter (pNFκB-Luc) in ECV304 cells; settings: 45 min pretreatment with 10 μM, TNF-α 1 ng/ml
# Protocol: The results are presented by FIG. 2A.
# The effect of PR-39-mediated inhibition of IκBα degradation on NFκB-dependent transcription was tested in ECV304 cells transiently transfected with pNFκB-Luc reporter vector.
# [4] = tested on: IκBα; assay: TNF-α induced degradation of IκBα in U937 cells; settings: 45 min pretreatment with 10 μM, TNF-α 1 ng/ml, 10 min
# Protocol: Tumor necrosis factor (TNF)-α is known to induce rapid degradation of IκBα by the Ub-proteasome pathway.
# As shown by FIG. 1E, PR-39 prevents TNF-a induced degradation of IκBα. U937 cells were cultured in 10% FBs-RPMI medium in the absence (−) or presence of TNF-a (1 ng/ml). 10 min following TNF-α addition, the cells were washed and IκBα protein levels assessed by Western blotting.
# Note that a […] 45 min of pretreatment with 100 nM of PR-39 or 10 μM of MG132 or lactacystin (LC) prior to addition of blocked TNF-α, blocked cytokine-induced degradation of IκBα expression.
# [5] = tested on: HSP70; assay: HSP70 expression by Western blotting
# [6] = tested on: IκBα; assay: IκBα protein levels in ECV304 cells by Western blotting; settings: ECV304 cells, 2 hr, 10 μM
# Protocol: For IκBα expression studies, normally proliferating wild type ECV304 cells (ECV) or ECV-PR-39 and ECV-E4 cells were lysed in the loading buffer, subjected to electrophoresis on 10% SDS-PAGE gel and transferred to a PVDF membrane. IκBα expression was then determined by Western blotting with anti-IκBα antibody (Santa Cruz, Inc.). ECV304 cells treated for 2 hr with 10 μM of lactacystin (LC) were used as control.
# Western blotting of ECV cell lysate was carried out following 2 hr exposure to buffer (0) or 100 or 50 nM of PR-39. […] Clearly, exposure of wild type ECV304 cells to the synthetic PR-39 peptide led to a dose-dependent increase in IκBα levels.
Structure (SMILES),inhibition at 10 µM [1] [%],extent of IκBα degradation after washout [2],TNF-α induced increase in luciferase activity [3],TNF-α caused decline of the level of IκBα [4],"HSP70 expression ([5]; U937 cells, 1 μM, 3 hr exposure)","HSP70 levels ([5]; cultured ECV304 cells, 10 μM)",IκBα levels [6]
"CC(C)C[C@@H](C=O)NC(=O)[C@H](CC(C)C)NC(=O)[C@H](CC(C)C)NC(=O)OCc1ccccc1 [MG132, reference compound] (Cbz-Leu-Leu-Leu-aldehyde)",~50,complete disappearance of IκBα protein,completely blocked,markedly reduced,appearance of HSP70 expression,striking increase in HSP70 levels,–
CC(=O)N[C@@H](CSC(=O)[C@]1([C@@H](O)C(C)C)NC(=O)[C@H](C)[C@@H]1O)C(=O)O [lactacystin],–,irreversibly blocked proteasome-mediated degradation of IκBα,completely blocked,markedly reduced,–,–,increased IκBα levels
